These results are taken from patent US20090170939A1, “Use of Fenofibrate or a Derivative Thereof for Preventing Diabetic Retinopathy” (Laboratoires Fournier S.A., priority 2005, published 2009).

This assay deals with diabetic retinopathy in patients with type 2 diabetes. Kind of assay: FIELD study: laser treatment for diabetic retinopathy (tertiary outcome). Type of assay: in vivo, human. Particulars: follow-up more than 5 years. From the text: As fibrates are known to correct the typical dyslipidaemia of diabetes, their role in cardiovascular risk reduction in diabetes may be especially important. A study called Fenofibrate Intervention and Event Lowering in Diabetes (FIELD) has been carried out which study is a multicentre, double-blind, placebo-controlled trail evaluating the effects on coronary morbidity and mortality of long-term treatment with fenofibrate to elevate high-density lipoprotein (HDL) cholesterol levels and lower triglyceride (TG) levels in patients with type 2 diabetes and total blood cholesterol between 3 and 6.5 mmol/L (115 and 250 mg/dL) at study entry. In type 2 diabetes, rates of coronary heart disease (CDH) are 3 to 4 times higher than those of persons without diabetes at any given level of blood cholesterol, and at any given age. […] Further, people with type 2 diabetes have both higher in hospital mortality after myocardial infarction (MI) and a poorer outcome in the subsequent years, losing on average between 5 and 10 years of life expectancy.
The study was is randomized, double-blind, placebo-controlled parallel-group trial among middle-aged to elderly people with type 2 diabetes mellitus considered to be at increased risk of CHD. Those with and without pre-existing vascular disease or other lipid abnormalities, such as low HDL cholesterol and elevated TG, were eligible, provided the total blood cholesterol level at screening fell between 3.0 and 6.5 mmol/L (about 115-250 mg/dL) plus either a total-to-HDL cholesterol ratio of >4.0 or a blood TG level >1.0 mmol/L (88.6 mg/dL). The study has been conducted in 63 clinical centres in Australia (39), Finland (9) and New Zealand (15).
The underlying principle guiding recruitment of patients into the study was that of clinical uncertainty: that is, patients were only to be considered if the patients' treating physicians were substantially uncertain about the value of lipid-modifying therapy for that particular individual and felt that there was no indication for lipid-modifying therapy. […]

Take `CC(C)OC(=O)C(C)(C)Oc1ccc(C(=O)c2ccc(Cl)cc2)cc1` [Fenofibrate, 1-methylethyl ester (isopropyl ester) of fenofibric acid]: the “Patients with laser treatment for diabetic retinopathy (one or more laser treatments), %” value (fenofibrate 200 mg comicronized, one capsule daily, type 2 diabetes) turned out to be 3.6%. For the same molecule, for the setting “fenofibrate 200 mg daily”, the “Incident cases (first laser treatment for retinopathy post-randomisation), %” value is listed as 2.3% and the “Prevalent cases (all reported laser treatments post-randomisation), %” value was 7.3%.
